Test results published in article PMC5652740, “Inhibition of HIV-1 infection in humanized mice and metabolic stability of protein phosphatase-1-targeting small molecule 1E7-03” (Oncotarget, 2017).
“And” between values parts separate entries of the source, which are not always exact repeats. Identical values can stand only once.

Legend:
[1] = biological target: T1, QuantiLum Recombinant Luciferase (Photinus pyralis, UniProt P08659); test: Purified luciferase inhibition in vitro; assay type: biochemical; settings: for effect on luciferase activity in vitro: in words, 1E7-03 at concentrations below 100 μM; for IC50: purified luciferase, room temperature, 10 min
T1 construct: purchased
T1 sequence (P08659 whole entry): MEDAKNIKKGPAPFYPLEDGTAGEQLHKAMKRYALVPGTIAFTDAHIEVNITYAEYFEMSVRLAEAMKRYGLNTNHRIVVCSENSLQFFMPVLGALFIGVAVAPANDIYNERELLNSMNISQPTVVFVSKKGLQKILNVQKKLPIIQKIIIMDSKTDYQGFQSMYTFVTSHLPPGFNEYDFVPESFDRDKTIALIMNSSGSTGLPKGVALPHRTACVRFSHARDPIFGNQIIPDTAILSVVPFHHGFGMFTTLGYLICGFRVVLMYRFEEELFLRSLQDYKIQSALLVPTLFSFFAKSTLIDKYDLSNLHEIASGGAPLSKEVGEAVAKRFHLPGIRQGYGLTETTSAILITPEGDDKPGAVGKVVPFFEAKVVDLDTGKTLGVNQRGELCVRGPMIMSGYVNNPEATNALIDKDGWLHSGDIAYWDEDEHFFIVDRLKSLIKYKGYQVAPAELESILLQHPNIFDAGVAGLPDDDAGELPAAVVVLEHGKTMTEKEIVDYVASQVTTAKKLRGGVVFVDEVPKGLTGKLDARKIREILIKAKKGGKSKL
Experimental: QuantiLum Recombinant Luciferase (20 ng/ml in PBS) was added into 96-well plate (100 μl/well) and incubated with serial dilutions of the compounds or vehicle (DMSO) under room temperature for 10 min. 100 μl of reconstituted luciferase buffer (Luclite Kit, Perkin Elmer) was added to each well, incubated for another 10 min and luminescence was measured using Glo-Max Microplate Multimode reader (Promega).

[2] = Stability in human liver microsomes; assay type: in vitro ADME; settings: 1 hr; for % of Total (Liver microsomes, Human): 10 μM 1E7-03, 37°C, 1E7-03 remaining and DP1, DP3 formed
Experimental: The metabolic stability of 1E7-03 was also investigated using a pool of human and mouse liver microsomes (HMS9PL, MSS9PL, Thermo Scientific) following manufacturer's instructions. In brief, incubations were conducted at 37 ± 1°C in mixtures containing 5 μl of human or mouse liver microsomes (20 mg/ml), 183 μl of potassium phosphate buffer (pH 7.4, 100 mM) and 2 μl of 1E7-03 (10 mM sock solution of 1E7-03 in DMSO was diluted into 1 mM by PBS). The mixture was pre-incubated for 5 min, then initiated the reactions with the addition of 10 μl 20 mM NADPH (Sigma Aldrich). The reactions were terminated after 1 hr incubation by adding 800 μl cold acetone. The mixture was kept at 4°C for 30 min, and the precipitated protein was removed by centrifugation (13, 000 g for 10 min at 4°C). A 250 μl aliquot of supernatant was transferred to a clean test tube and evaporated to dryness using a SpeedVac concentrator. The residue was reconstituted in 50 μl of acetonitrile with 0.1% FA for LC/FT-MS analysis.

[3] = biological target: T2, PP1 (Homo sapiens, UniProt P62136); test: SPR competition with pRb-Tat peptide for binding to PP1; settings: compounds at 1 μM; for fold reduction of the binding of pRb-Tat to PP1: pRb-Tat 10-100 nM
T2 construct: human PP1α (residues 7–300); His; made in house; host or cells: BL21 (DE3) Escherichia coli, co-expressed with GroEL/GroES chaperones
T2 sequence (P62136 7-300): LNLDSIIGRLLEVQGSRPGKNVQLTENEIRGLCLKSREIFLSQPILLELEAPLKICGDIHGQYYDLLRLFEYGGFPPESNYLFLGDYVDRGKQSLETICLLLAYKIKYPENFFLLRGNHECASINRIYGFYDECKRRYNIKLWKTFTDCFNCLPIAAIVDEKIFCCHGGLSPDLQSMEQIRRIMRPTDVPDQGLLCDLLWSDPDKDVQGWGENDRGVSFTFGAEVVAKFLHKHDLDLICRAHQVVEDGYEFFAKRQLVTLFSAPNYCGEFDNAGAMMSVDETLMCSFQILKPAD
Experimental: The SPR measurements were conducted on Biacore T200 instrument (GE Healthcare, Piscataway, NJ) at 25°C. Recombinant PP1 was immobilized on a CM5 chip by amine coupling (GE Healthcare). PP1 (200 nM) was captured on flow cell 2 in 10 mM acetate buffer, pH 5.0, supplemented with 2 mM MnCl2. The average amount of PP1 immobilized on the surface was 3160 RU. Flow cell 1 was used as a reference surface to subtract background signal. Also injections of the buffer alone were used to provide double reference subtraction. To measure the direct binding of small molecules to PP1, the two flow cells of the sensor chip were primed with running buffer (0.01 M HEPES pH 7.4, 0.15 M NaCl, 0.005% v/v Surfactant P20, 1% DMSO and 2 mM MnCl2). For binding and kinetics experiments, all compounds were diluted in the running buffer, at 40 μM, 20 μM, 10 μM, 5 μM, 2.5 μM, 1.25 μM and 0 μM and then passed over the two flow cells at a flow rate of 100 μl/min for 60 sec. The number of response units was recorded after the subtraction of the reference flow cell's value (Fc2-1). Two repetitions were performed for each injection. Data were analyzed using the BiaEvaluation software of Biacore with a 1:1 binding model. […] All the small molecular weight compounds were used at 1 μM.

[4] = system: CEM T cells; test: Cellular permeability assay by LC/FT-MS; assay type: in vitro ADME; settings: 10 μM, 24 hrs; for CEM T cell permeability, % of Total, Cells: accumulation in cell lysate
Experimental: CEM T cells were seeded in 6-well plates (0.5 × 10^6 cells/ml) and treated by 10 μM of the indicated compounds. Two samples were generated for each compound (in triplicates) obtained from cellular lysate and media sample. Cell culture media samples (100 μl) were collected from each well after 24 hrs of incubation and total protein was precipitated by the addition of 400 μl cold acetone. […] To obtain cell lysates, the cells were suspended in 300 μl cold whole cell lysis buffer (50 mM Tris-HCl, pH 7.5, 0.5 M NaCl, 1% NP-40, 0.1% SDS) and sonicated. A 100 μl aliquot of the cell lysate was combined with 400 μl cold acetone to precipitate proteins. All samples were centrifuged at 13,000 × g for 5 min. Supernatants containing compounds and their metabolites were collected and evaporated to dryness on SpeedVac concentrator. The dry pellet was reconstituted in 50 μl acetonitrile for LC/FT-MS analysis.

[5] = system: HIV-1 89.6; test: Antiviral efficacy in HIV-1 89.6-infected humanized NSG mice; assay type: in vivo; settings: 48 hrs
Experimental: NOD.Cg-Prkdcscid Il2rgtm1Wjl/SzJ (NSG) mice initially purchased from Jackson Laboratories were bred and maintained in the Animal Core Facility at George Mason University (Manassas, VA). NSG mice were generated by i.p. injection of cryopreserved human CD34+ hematopoietic stem progenitor cells (HSPC) (500,000 cells per mouse) isolated from the autologous fetal liver. Anesthetized mice were inoculated by direct injection 16 weeks after implantation with 50 μl of HIV-1 89.6 (1,000 TCID50) or RPMI 1640 medium (mock infection). […] Blood was collected by tail vein after 48 hrs and transferred into microcentrifuge tubes containing 330 mM EDTA. Each data point represents the blood from a single animal. Plasma was removed after low-speed centrifugation for 5 min at room temperature and stored at -80°C. Viral RNA was extracted from plasma using the QIAamp Viral RNA Mini Kit (Qiagen). For quantitative analysis of HIV-1 RNA, total RNA was isolated from blood specimens of HIV-1-infected humanized mice. RNA was isolated using Trizol Reagent (Invitrogen, Carlsbad, CA) according to the manufacturer's protocol. A total of 1.0 μg of RNA was treated with 0.25 mg/ml DNase I RNase-free (Roche, Mannheim, Germany) for 60 min in the presence of 5 mM MgCl2, followed by heat inactivation at 65 °C for 15 min. A 200–250 ng aliquot of total RNA was used to generate cDNA with the GoScript Reverse Transcription System (Promega, Madison, WI) using TAR-specific reverse primer TAR+59R: 5′- […] -3′. Subsequent quantitative real-time PCR analysis was performed with 2 μl of undiluted RT reaction mixes. The iQ Supermix (Bio-Rad, Hercules, CA) was used with the primers specific for (1) HIV-1 TAR: TARfll-F: 5′-[…]-3′ and TAR+59R as above; (2) HIV-1 TAR-gag: Gag 1625R: 5’- […] -3’ and TAR+59R as above. Real-time PCR reactions were carried out in triplicate.

Row | SMILES | effect on luciferase activity in vitro [1] | IC50 [1] | % of Total (Liver microsomes, Human) [2] | % of 1E7-03 degraded and converted into DP1 ([2]; human liver microsomes) | fold reduction of the binding of pRb-Tat to PP1 [3] | CEM T cell permeability, % of Total, Cells ([4]; 37°C) | fold reduction of HIV TAR RNA ([5]; single i.p. dose, 1E7-03 3 mg/kg, F07#13 […], vs untreated mice, Figure 6A) | fold reduction of HIV TAR-gag RNA ([5]; single i.p. dose, 1E7-03 3 mg/kg, F07#13 […], vs untreated mice, Figure 6B) | CEM T cell permeability, % of Total, Media ([4]; 37°C, amount in media) | fold reduction of HIV TAR RNA ([5]; single i.p. dose 3 mg/kg, Figure 7G) | competition with pRb-Tat for binding to PP1 ([3]; in words) | times less efficient cellular accumulation than 1E7-03 ([4]; CEM T cells)
1 | CCNC(=O)NC(=O)C(C)OC(=O)c1c2c(nc3ccccc13)/C(=C/c1ccc(OC)c(OC)c1)CC2 (centres unmarked) [1E7-03] | no effect | > 180 µM | 59.39% | 39% | 2-2.5 fold | 3% | > 40 fold | > 39 fold |  |  |  | 
2 | COc1ccc(/C=C2\CCCc3c2nc2ccccc2c3C(=O)OC(C)C(=O)OC(C)(C)C)cc1OC (centres unmarked) [DP1-07] | did not inhibit |  |  |  |  | 2.7% and 2.73% |  |  | 97.27% | 3.8 fold |  | 
3 | COc1ccc(/C=C2\CCc3c2nc2ccccc2c3C(=O)OC(C)C(=O)O)cc1OC (centres unmarked) [DP1] |  | 37 µM | 39.34% |  | 10 fold |  |  |  |  |  | best competitor | more than 10 times
4 | COc1ccc(/C=C2\CCc3c2nc2ccccc2c3C(=O)O)cc1OC [DP3] |  | 7.2 µM | 1.27% |  | 2-2.5 fold |  |  |  |  |  |  | 
